Source: US20250241879A1, “CAPSAICIN SEQUENTIAL DOSING METHOD FOR TREATMENT OF KNEE JOINT PAIN” (priority 2018, published 2025)

Assays:
[1] = test system: osteoarthritic knee joint pain; assay: WOMAC C function subscale (Example 2); type: in vivo, human; settings: 1.0 mg dose; through week 16; P=0.02
Experimental: (§1) Human patients aged 45-80 years with chronic knee osteoarthritis, stable moderate to severe pain, and intolerability to analgesics were randomized to receive a single intra-articular injection of placebo into the osteoarthritic knee, a single intra-articular injection of a 0.5 mg dose of capsaicin into the osteoarthritic knee, or a single intra-articular injection of a 1.0 mg dose of capsaicin into the osteoarthritic knee.
(§2) Patients completed Patient Global Impression of Change (PGIC; change vs baseline in index knee on 7-point scale: 1=very much improved; 7=very much worse, with scores of 1 or 2 indicating significant improvement) and Patient-specific Functional Scale (PSFS; rate≤3 important activities difficult to perform due to index knee pain on 0-10 scale: 0=able to perform; 10=unable to perform) at scheduled visits. Odds ratios for PGIC scores were calculated with chi-square tests. Changes in Western Ontario and McMaster Universities Osteoarthritis Index (WOMAC) B stiffness subscale and WOMAC C function subscale through week 24 were also assessed. PSFS, WOMAC B, and WOMAC C scores were evaluated using a mixed model for repeated measures. Statistical tests were 2-sided (alpha, P=0.10).

[2] = test system: human patients with bilateral knee osteoarthritis; assay: Procedure pain (NPRS) due to intraarticular trans-capsaicin, Breg pad vs ice pack cooling (Example 7); type: in vivo; settings: Breg Knee WrapOn Polar Pad cooling compared to ice-pack cooling (Example 7)
Experimental: Human patients experiencing osteoarthritic knee joint pain were subjected to two different protocols for intraarticular administration of trans-capsaicin. Temporary pain expected due to administration of capsaicin was analyzed, along with the intraarticular temperature of the knee joint and the temperature of the patient's skin in the area to be cooled.
(§3) One of the protocols utilized a Breg Knee WrapOn Polar Pad (as illustrated in FIG. 1) that utilizes circulating ice-water to achieve cooling, where the pad is placed on skin surrounding the knee in order to cool the knee joint. The other protocol utilized ice-pack cooling, in which the patient's knee was wrapped with a stockinette and then the ice pack was positioned on top of the stockinette so that the ice pack is positioned over the patient's patella to thereby cool the knee joint. The ice pack was a LEADSTAR pain relief reusable cold therapy ice pack (size=6 inches). A temperature probe was placed into the intraarticular space of the patient's knee joint to measure intraarticular temperature of the knee joint. A temperature probe was also placed on the skin in the area to be cooled in order to measure skin temperature in the area to be cooled.
Five human patients suffering from moderate to severe painful bilateral knee osteoarthritis were recruited for this study evaluating the impact that cooling protocol has on the magnitude of temporary pain experienced by the patient due to administration of capsaicin. […] Patients that participated in the study passed the following screening criteria and meet the patient inclusion and exclusion criteria are set forth below. As part of patient screening, patients received an intradermal injection of 100 μL (100 μg) capsaicin into the non-dominant volar forearm. To be eligible to enter the study, patients were able to tolerate the capsaicin injection. Screening patients rated the pain from capsaicin injection at 5, 10, 20, and 30 minutes after injection using a 0-10 Numerical Pain Rating Scale, where “0” equals no pain and “10” equals worst possible pain.
as §3, with “ice pack (having a surface for application to the patient, wherein said surface has a diameter of approximately six inches) is positioned” for “ice pack is positioned”, “knee joint. A temperature” for “knee joint. The ice pack was a LEADSTAR pain relief reusable cold therapy ice pack (size=6 inches). A temperature”, “knee joint. At the discretion of the physician performing the procedure, in order to reduce discomfort for the patient, the protocol authorized the physician to instill a volume of 1-2 cc of 2% w/w lidocaine (without epinephrine) into the skin and subcutaneous tissue of the knee at the site of intra-articular probe insertion. A temperature” for “knee joint. A temperature”
One the first day of the study, patients were randomized so that (i) three patients receiving cooling of the knee joint using the Breg Knee WrapOn Polar Pad and (ii) two patients will receive ice-pack cooling over the patella as set forth above. Patients were subjected to the following procedure: • Placement of intraarticular temperature probe and skin temperature probe. […]

[3] = test system: human patients with chronic knee osteoarthritis; assay: Treatment-emergent adverse events, SAEs and laboratory abnormalities after single intra-articular injection (Example 2); type: in vivo; settings: for All TEAEs, (%) / Arthralgia TEAE, (%) / Hepatic enzyme increased TEAE, (%) / Influenza TEAE, (%) / Joint effusion TEAE, (%) / Nasopharyngitis TEAE, (%) / Upper respiratory tract infection TEAE, (%): through 24 weeks
Experimental: Human patients experiencing osteoarthritic knee joint pain received either placebo, a 0.5 mg intra-articular injection of capsaicin into the osteoarthritic knee joint, or a 1.0 mg intra-articular injection of capsaicin into the osteoarthritic knee joint. […]
as §1
(§4) Safety assessments included treatment-emergent adverse events (TEAEs), serious AEs (SAEs), laboratory abnormalities, and procedural pain ratings (none, mild, moderate, moderately severe, severe). The procedure pain ratings characterize the extent of transient burning sensation experienced by patients due to administration of capsaicin.

[4] = test system: osteoarthritic knee joint pain; assay: WOMAC B stiffness subscale (Example 2); type: in vivo, human; settings: 1.0 mg dose; through week 16; P=0.007
Experimental: as §1, §2

[5] = test system: osteoarthritic knee joint pain; assay: Patient Global Impression of Change (PGIC), index knee (Example 2); type: in vivo, human; settings: for PGIC: proportion of patients reporting significant improvement in the index knee: week 4, placebo 44%
Experimental: as §1, §2

[6] = test system: human patients with chronic knee osteoarthritis; assay: Procedural pain ratings (none, mild, moderate, moderately severe, severe) after intra-articular injection (Example 2); type: in vivo; settings: 2 hours after injection of capsaicin (or placebo); all groups
Text: as §4

[7] = test system: osteoarthritic knee joint pain; assay: Patient-specific Functional Scale (PSFS) (Example 2); type: in vivo, human
Experimental: as §1, §2

[8] = Capsaicin 1.0 mg Dose (n = 71), listed as capsaicin
[9] = Capsaicin at Either 0.5 mg or 1.0 Dose (n = 105)
[10] = Capsaicin at Either 0.5 mg or 1.0 Dose (n = 105), listed as capsaicin
[11] = Capsaicin at 0.5 mg Dose, Week 4
[12] = Capsaicin at 0.5 mg Dose, Week 8
[13] = Capsaicin at 0.5 mg Dose, Week 12
[14] = Capsaicin at 0.5 mg Dose, Week 16
[15] = Capsaicin at 0.5 mg Dose, Week 24
[16] = Capsaicin at 1.0 mg Dose, Week 4
[17] = Capsaicin at 1.0 mg Dose, Week 8
[18] = Capsaicin at 1.0 mg Dose, Week 12
[19] = Capsaicin at 1.0 mg Dose, Week 16
[20] = Capsaicin at 1.0 mg Dose, Week 24

COc1cc(CNC(=O)CCCCC=CC(C)C)ccc1O [Capsaicin, N-[(4-hydroxy-3-methoxyphenyl)methyl]-8-methylnon-6-enamide]
WOMAC C score, least squares mean difference versus placebo [1]: −14.8 | Pain due to capsaicin injection, comparison of cooling methods [2]: less when Breg Knee WrapOn Polar Pad cooling was used | All TEAEs, (%) ([3]; Capsaicin 0.5 mg Dose (n = 34)): (47) % | Arthralgia TEAE, (%) ([3]; Capsaicin 0.5 mg Dose (n = 34)): (8.8) % | Hepatic enzyme increased TEAE, (%) ([3]; Capsaicin 0.5 mg Dose (n = 34)): (5.9) % | Influenza TEAE, (%) ([3]; Capsaicin 0.5 mg Dose (n = 34)): (2.9) % | Joint effusion TEAE, (%) ([3]; Capsaicin 0.5 mg Dose (n = 34)): (8.8) % | Nasopharyngitis TEAE, (%) ([3]; Capsaicin 0.5 mg Dose (n = 34)): (2.9) % | Upper respiratory tract infection TEAE, (%) ([3]; Capsaicin 0.5 mg Dose (n = 34)): (5.9) % | All TEAEs, (%) ([3]; Capsaicin 0.5 mg Dose (n = 34), listed as capsaicin): 47% | All TEAEs, (%) ([3]; Capsaicin 1.0 mg Dose (n = 71)): (30) % | Arthralgia TEAE, (%) ([3]; Capsaicin 1.0 mg Dose (n = 71)): (7.0) % | Hepatic enzyme increased TEAE, (%) ([3]; Capsaicin 1.0 mg Dose (n = 71)): (1.4) % | Influenza TEAE, (%) ([3]; Capsaicin 1.0 mg Dose (n = 71)): (2.8) % | Nasopharyngitis TEAE, (%) ([3]; Capsaicin 1.0 mg Dose (n = 71)): (2.8) % | Upper respiratory tract infection TEAE, (%) ([3]; Capsaicin 1.0 mg Dose (n = 71)): (4.2) % | All TEAEs, (%) [3, 8]: 30% | Arthralgia TEAE, (%) [3, 8]: 7.0% | All TEAEs, (%) [3, 9]: (35) % | Arthralgia TEAE, (%) [3, 9]: (7.6) % | Hepatic enzyme increased TEAE, (%) [3, 9]: (2.9) % | Influenza TEAE, (%) [3, 9]: (2.9) % | Joint effusion TEAE, (%) [3, 9]: (2.9) % | Nasopharyngitis TEAE, (%) [3, 9]: (2.9) % | Upper respiratory tract infection TEAE, (%) [3, 9]: (4.8) % | Arthralgia TEAE, (%) [3, 10]: 7.6% | Upper respiratory tract infection TEAE, (%) [3, 10]: 4.8% | Laboratory abnormalities ([3]; all groups, most mild and associated with comorbidities): Few laboratory abnormalities were observed | TEAEs mild in severity, patients ([3]; capsaicin 0.5 mg dose group): 29% | TEAEs moderate in severity, patients ([3]; capsaicin 0.5 mg dose group): 18% | Serious AEs (SAEs) ([3]; capsaicin 0.5 mg dose group, not considered treatment related): One SAE (shoulder pain from osteoarthritis) | TEAEs mild in severity, patients ([3]; capsaicin 1.0 mg dose group): 20% | TEAEs moderate in severity, patients ([3]; capsaicin 1.0 mg dose group): 9.9% | Tolerability / safety profile ([3]; single injection 1.0 mg dose, up to 24 weeks): well tolerated with a safety profile generally comparable to placebo | WOMAC B score, least squares mean difference versus placebo [4]: −2.1 | PGIC: proportion of patients reporting significant improvement in the index knee ([5]; 0.5 mg dose, P=0.18): 58% | PGIC: proportion of patients reporting significant improvement in the index knee ([5]; 1.0 mg dose, P=0.01): 64% | PGIC: likelihood of significant improvement compared with placebo ([5]; 1.0 mg dose, weeks 4, 8 and 12): greater than two-fold likelihood | PGIC: Odds Ratio vs Placebo [5, 11]: 1.76 (P = 0.18) | PGIC: Odds Ratio vs Placebo [5, 12]: 1.89 (P = 0.14) | PGIC: Odds Ratio vs Placebo [5, 13]: 2.75 (P = 0.03) | PGIC: Odds Ratio vs Placebo [5, 14]: 2.37 (P = 0.05) | PGIC: Odds Ratio vs Placebo [5, 15]: 1.68 (P = 0.23) | PGIC: Odds Ratio vs Placebo [5, 16]: 2.34 (P = 0.01) | PGIC: Odds Ratio vs Placebo [5, 17]: 2.50 (P = 0.008) | PGIC: Odds Ratio vs Placebo [5, 18]: 2.40 (P = 0.01) | PGIC: Odds Ratio vs Placebo [5, 19]: 1.85 (P = 0.07) | PGIC: Odds Ratio vs Placebo [5, 20]: 1.64 (P = 0.15) | Patients reporting mild procedural pain [6]: 39% | Patients reporting no procedural pain [6]: 50% | PSFS: ability to perform activities versus placebo ([7]; 1.0 mg dose, weeks 4-16): significantly improved patients' ability to perform activities versus placebo | PSFS: LSMD versus Placebo [7, 11]: 0.01 (P = 0.98) | PSFS: LSMD versus Placebo [7, 12]: −0.03 (P = 0.96) | PSFS: LSMD versus Placebo [7, 13]: −0.4 (P = 0.40) | PSFS: LSMD versus Placebo [7, 14]: −0.5 (P = 0.35) | PSFS: LSMD versus Placebo [7, 15]: −0.05 (P = 0.93) | PSFS: LSMD versus Placebo [7, 16]: −1.4 (P = 0.0006) | PSFS: LSMD versus Placebo [7, 17]: −0.9 (P = 0.03) | PSFS: LSMD versus Placebo [7, 18]: −1.1 (P = 0.007) | PSFS: LSMD versus Placebo [7, 19]: −0.9 (P = 0.04) | PSFS: LSMD versus Placebo [7, 20]: −0.5 (P = 0.27) | Improvement in physical function versus placebo ([7]; single injection 1.0 mg dose, moderate to severe osteoarthritis knee pain): statistically significant improvements in physical function for 12-16 weeks
